Source: patent publication US20200277268A1, “PENTAFLUOROPHENYL SULFONAMIDE COMPOUNDS, COMPOSITIONS AND USES THEREOF” (DALRIADA THERAPEUTICS INC., priority 2017, published 2020)
Entries after “also recorded” stand apart in the source; their conditions may differ.

Experiments:
D458 = assay: Cell viability, medulloblastoma D458; type: cell-based; details: medulloblastoma cell line
Description: (§1) The anti-cancer efficacy of exemplary compounds of the application were assessed in vitro against different cancer cell lines. Cell viability was examined following treatment at various concentrations of inhibitor (0.097656-50 μM) using a CellTiter-Blue® cell viability assay. 1×10^4 cells/well were plated in 96-well assay plates in culture medium. All cells were grown in DMEM, IMDM and RPMI-1640 supplemented with 10% fetal bovine serum (FBS). In some instances, FBS was removed for periods ranging from 16-24 hours, and re-introduced with test compound addition. After 24 hrs, test compounds and vehicle controls were added to appropriate wells such that the final volume was 100 μl in each well. The cells were cultured for the desired test exposure period (72 hours) at 37° C. and 5% CO2. The assay plates were removed from […] incubator and 20 μl/well of CellTiter-Blue® Reagent was added. The plates were incubated using standard cell culture conditions for 1-4 hours. Afterwards, the plates were shaken for 10 seconds and florescence was recorded at 560/590 nm using a Cytation 3 spectrophotometer. IC50 values were determined using non-linear regression analysis with GraphPad Prism 6.0 (GraphPad Software Inc.). […]

[1] = tested on: UFMylation pathway (UBA5, UFC1, UFM1, c-Myc) in MV4-11 cells; assay: Western blot of UFMylation pathway in MV4-11 cells; type: cell-based; details: 8 hours
Description: Post-treatment (8 hours) of MV4-11 cells with I-1 test compound at 1, 0.5, 0.25, 0.1 and 0 μM concentrations, all cells were lysed with radioimmunoprecipitation assay (RIPA) buffer: 20 mM Tris pH 7.4, 150 mM NaCl, 0.5% deoxycholate, 1% Triton X-100, 0.1% sodium dodecyl sulfate (SDS). Total protein was measured using BCA assay (Sigma). In each assay, clarified protein were resolved on a 4%-15% polyacrylamideSDS gel and transferred to a PVDF membrane (Bio-Rad). The membranes were blocked with 5% solution of skim milk powder in TBST and incubated for at least 1 hour followed by an overnight incubation at 4° C. in primary antibody (1:1000 dilution). Blots were probed with antibodies against UBA5, UFM1, UFC1, c-Myc, and beta-actin was used as a loading control (Santa Cruz Biotechnology catalog # sc-835). The PVDF membrane then washed with TBST (3 times for 5 minutes). A horseradish peroxides (HRP)-conjugated goat anti-mouse IgG secondary antibodies (Cell signaling Catalog #7076S) was applied to the membrane (1:5000 dilution) and incubated for 1 hour at room temperature. The blots were then rinsed again 3 times in TBST for 10 minutes. Bands were visualized using clarity western ECL substrate luminal/enhancer solution and peroxide solution 1:1 ratio for HRP secondary antibody, according to the manufacturer's instructions (Bio-Rad) and analyzed using Image lab software (Bio-Rad).

A-172 = assay: Cell viability, glioblastoma A-172; type: cell-based; details: Homo sapiens, glioblastoma cell line
Description: The anti-cancer efficacy of exemplary compounds of the application were assessed in vitro against different cancer cell lines. […] 1×10^4 cells/well were plated in 96-well assay plates in culture medium. […] In some instances, FBS was removed for periods ranging from 16-24 hours, and re-introduced with test compound addition. After 24 hrs, test compounds and vehicle controls were added to appropriate wells such that the final volume was 100 μl in each well. The cells were cultured for the desired test exposure period (72 hours) at 37° C. and 5% CO2. The assay plates were removed from […] incubator and 20 μl/well of CellTiter-Blue® Reagent was added. The plates were incubated using standard cell culture conditions for 1-4 hours. Afterwards, the plates were shaken for 10 seconds and florescence was recorded at 560/590 nm using a Cytation 3 spectrophotometer. IC50 values were determined using non-linear regression analysis with GraphPad Prism 6.0 (GraphPad Software Inc.).

MOLM14 = assay: Cell viability, AML MOLM14; type: cell-based; details: Homo sapiens, MOLM-14, Table 4
Description: as §1

kinases = assay: KINOMEscan kinase screen (DiscoverX); type: binding; details: 10 μM
Description: For most assays, kinase-tagged T7 phage strains were grown in parallel in 24-well blocks in an E. coli host derived from the BL21 strain. E. coli were grown to log-phase and infected with T7 phage from a frozen stock (multiplicity of infection=0.4) and incubated with shaking at 32° C. until lysis (90-150 minutes). The lysates were centrifuged (6,000×g) and filtered (0.2 μm) to remove cell debris. The remaining kinases were produced in HEK-293 cells and subsequently tagged with DNA for qPCR detection. […] The liganded beads were blocked with excess biotin and washed with blocking buffer (SeaBlock (Pierce), 1% BSA, 0.05% Tween 20, 1 mM DTT) to remove unbound ligand and to reduce non-specific phage binding. […] I-1 test compound was prepared as 40× stocks in 100% DMSO and directly diluted into the assay. All reactions were performed in polypropylene 384-well plates in a final volume of 0.02 mL. […] The kinase concentration in the eluates was measured by qPCR. […]
I-1 test compound was tested at 10 μM, and results for primary screen binding interactions are reported as […] where lower numbers indicate stronger hits in the matrix. Ctrl is calculated with the following formula:
test compound=I-1 negative control=DMSO (100% Ctrl) positive control=control compound (0% Ctrl)

[2] = tested on: healthy keratinocyte cells (HaCaT); assay: CellTiter-Blue cell viability, HaCaT; type: cell-based; details: Homo sapiens, non-cancerous, 72 hours
Description: The anti-cancer efficacy of exemplary compounds of the application were assessed in vitro against different cancer cell lines. Cell viability was examined following treatment at various concentrations of inhibitor (0.097656-50 μM) using a CellTiter-Blue® cell viability assay. 1×10^4 cells/well were plated in 96-well assay plates in culture medium. All cells were grown in DMEM, IMDM and RPMI-1640 supplemented with 10% fetal bovine serum (FBS). In some instances, FBS was removed for periods ranging from 16-24 hours, and re-introduced with test compound addition. After 24 hrs, test compounds and vehicle controls were added to appropriate wells such that the final volume was 100 μl in each well. The cells were cultured for the desired test exposure period (72 hours) at 37° C. and 5% CO2. The assay plates were removed from 3° C. incubator and 20 μl/well of CellTiter-Blue® Reagent was added. The plates were incubated using standard cell culture conditions for 1-4 hours. Afterwards, the plates were shaken for 10 seconds and florescence was recorded at 560/590 nm using a Cytation 3 spectrophotometer. IC50 values were determined using non-linear regression analysis with GraphPad Prism 6.0 (GraphPad Software Inc.).

UBA5 = molecular target: T1, UBA5 (Homo sapiens, UniProt Q9GZZ9); assay: Thermal shift assay of UBA5; type: binding; details: 50 μM I-1, 0.5 μM UBA5; without compound 46.43° C.
T1 construct: Constructs of full length human UBA5 (1-404) were cloned into a pET28b(+) vector; His-SUMO (N, cleaved yes); made in house; host or cells: E. coli BL21 (DE3) RILP
Description: SYPRO Orange protein gel stain (Sigma-Aldrich) was used to conduct thermal shift assays. This was done on a Bio-Rad C1000 Touch ThermoCycler with a CFX96 Real-Time optical unit. Final UBA5 protein concentrations of 0.5 μM were used in 50 mM HEPES, pH 7.4. UBA5 was pre-incubated with test compound I-1 for 4 hours at 30° C. Next, SYPRO orange was added to the samples for a final 5× (10 μM) concentration from the original 5000× stock. DMSO content was 5% (v/v). Heating was done in 0.5° C. increases with 30 seconds in between, from 10 to 75° C. Fluorescence intensity was measured at […] followed by excitation at […]. This emission intensity was graphed against temperature and then recorded as a first derivative curve. The temperature of the resultant curve minima provided the melting temperature (Tm) of the protein. Experiments were run in triplicates.

T1 sequence (Q9GZZ9 whole entry): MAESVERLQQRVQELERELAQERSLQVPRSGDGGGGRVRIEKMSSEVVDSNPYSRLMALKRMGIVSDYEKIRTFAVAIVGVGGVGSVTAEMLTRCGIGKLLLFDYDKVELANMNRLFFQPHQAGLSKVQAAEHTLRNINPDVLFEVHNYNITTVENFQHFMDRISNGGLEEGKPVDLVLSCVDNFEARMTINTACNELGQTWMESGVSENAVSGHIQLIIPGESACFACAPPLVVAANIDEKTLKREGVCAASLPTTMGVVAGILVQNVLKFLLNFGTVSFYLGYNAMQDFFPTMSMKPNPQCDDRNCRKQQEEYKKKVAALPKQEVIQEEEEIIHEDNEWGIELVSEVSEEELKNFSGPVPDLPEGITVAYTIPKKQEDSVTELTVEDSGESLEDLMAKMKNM

IC50 (D458): 2.2 µM
IC50 (A-172): 7.16 µM
IC50 (MOLM14): 1.7 to 2.5 µM
melting temperature (Tm) of UBA5 with compound (UBA5): 44.33 °C
SMILES: O=S(=O)(c1c(F)c(F)c(F)c(F)c1F)N(Cc1ccc(F)cc1)C1CC1 [Compound I-1, N-cyclopropyl-2,3,4,5,6-pentafluoro-N-(4-fluorobenzyl)benzenesulfonamide]
concentration at which UFM1-UFC1 conjugate levels decrease [1]: ≥ 250 nM
concentration at which c-Myc levels decrease [1]: ≥ 250 nM
concentration giving complete wipe-out of UBA5 total protein [1]: greater than 500 nM
concentration giving reduction of UBA5 total protein levels [1]: 250 nM
competitive binding / inhibition of kinase targets (kinases): negligible competitive binding; also recorded: does not inhibit
IC50 [2]: 12.5 µM
